“And” between values parts separate entries of the source, which are not always exact repeats. Equal values may be shown once.
Key:
OT-I CD8+ T cells = experiment: T cell proliferation (CTV dilution); format: cell-based, mouse; design: CTV, single replicates / CTV, mean of differences (D - C): unit not given here; conditions: for CTV, single replicates: N4 0.5 nM, 1 μM, 3 days, Fig. 2C raw data
Protocol: For analyzing cellular proliferation in vitro, single-cell suspensions from lymph nodes of wild type (OT-I;Ptpn2^fl/fl) or PTPN2-deficient (OT-I;Lck-Cre;Ptpn2^fl/fl) mice were stained with 2 μM CellTrace^TM Violet (CTV; Molecular Probes, Thermo Fisher Scientific) in PBS supplemented with 0.1% (v/v) FBS for 20 min at 37 °C. […] On day 3, OT-I cells were harvested and CTV dilution was monitored by flow cytometry. For cell number quantification, known numbers of Flow-Count Fluorospheres (Beckman Coulter) were added to samples before analysis.

PTPN2 = biological target: T1, PTPN2 (Homo sapiens, UniProt P17706); experiment: PTP inhibition assay with DiFMUP substrate (IC50); format: biochemical
T1 construct: PTPN2, residues 1-387; made in house; host or cells: E. coli BL21(DE3)
T1 sequence (P17706 1-387 isoform P17706-2): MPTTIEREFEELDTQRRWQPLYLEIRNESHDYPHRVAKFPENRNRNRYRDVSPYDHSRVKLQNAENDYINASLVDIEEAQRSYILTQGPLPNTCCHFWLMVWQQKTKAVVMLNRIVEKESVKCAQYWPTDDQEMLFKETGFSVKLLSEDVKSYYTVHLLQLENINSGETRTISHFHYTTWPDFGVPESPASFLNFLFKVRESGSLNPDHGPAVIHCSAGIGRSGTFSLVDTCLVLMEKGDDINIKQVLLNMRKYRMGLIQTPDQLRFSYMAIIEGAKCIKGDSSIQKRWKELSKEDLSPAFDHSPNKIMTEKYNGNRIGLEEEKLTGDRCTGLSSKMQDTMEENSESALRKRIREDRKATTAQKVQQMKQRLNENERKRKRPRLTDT
Protocol: E. coli BL21(DE3) (Novagen) was used as an expression host and the induction of protein expression was carried out in LB media with 1 mM IPTG at 18 °C overnight. Cell pellets were stored at −80 °C for subsequent protein purification.
Protein purification of PTPs for enzymatic assays was conducted at 4 °C. Frozen cell pellets were lysed by sonication in 40 ml cold lysis buffer (50 mM Tris-HCl, pH 8.0, 150 mM NaCl, 5 mM imidazole, and 1 mM PMSF) per litre cell pellet. Cell lysates were clarified by centrifugation using a Beckman JA-18 rotor for 15 min at 5308 x g. The supernatant was incubated with HisPur Ni-NTA resin (Thermo Scientific) for 2 h and then packed onto a column and washed with 50 resin volume of buffer A (50 mM Tris-HCl, pH 8.0, 500 mM NaCl, 5 mM imidazole). The His-tagged proteins were eluted with Buffer B (50 mM Tris-HCl, pH=8.0, 500 mM NaCl, 300 mM imidazole,). Pooled His-protein-containing fractions were concentrated, loaded onto a HiLoad 26/600 Superdex 75 column (GE Healthcare Biosciences) and eluted with storage buffer (50 mM Tris-HCl, pH 8.0, 150 mM NaCl, 1 mM DTT, 10% glycerol). […] The protein was aliquoted and stored at −80 °C.
The PTP kinetic assay was modified from previous reported protocols[73],[74]. […] The fluorescence signal was measured using a CLARIOstar Plus Microplate Spectrophotometer (BMG Labtech) using excitation and emission wavelengths of 340 nm and 450 nm, respectively. […]
To determine the mode of inhibition, the reactions were initiated by the addition of enzyme (final concentration for PTP1B and PTPN2 was 0.05 nM) to the reaction mixtures (0.2 ml) containing various concentrations of DiFMUP with different concentrations of the inhibitor. […] The fluorescence signal was measured using a CLARIOstar Plus Microplate Spectrophotometer (BMG Labtech) using excitation and emission wavelength of 340 nm and 450 nm, respectively. […]

NK cells = experiment: NK cell activation (IFN-γ+, CD107A+) by cytokines or α-NK1.1/α-Ly49H; format: cell-based, mouse; conditions: cytokines or crosslinking NK1.1, Ly49H
Protocol: proliferation in vitro. a-b) NK cells from C57BL/6 male mice (n=3 per group) were expanded […]
µg/ml) or vehicle (1% v/v DMSO) in the absence of IL-15. a) NK cells were re-stimulated for 15 min with the indicated amounts of IL-15 and Y694 phosphorylated STAT-5 (p-STAT-5) mean fluorescence intensities (MFIs) determined by flow cytometry. b) Alternatively, NK cells were stained with carboxyfluorescein succinimidyl ester (CFSE, Invitrogen) and then re-stimulated with the indicated amounts of IL-15 for 96 h and NK cell proliferation (CFSE dilution) monitored by flow cytometry. c-d) NK cells from C57BL/6 male mice (n=3 per group) were expanded ex vivo in the presence of IL-15 and then pre-treated with CMP-182 (0.1 or 1 µg/ml) or vehicle in the absence of IL-15. NK cells were re-stimulated with either IL-12 (10 ng/ml) or IL-18 (100 ng/ml) or with α-NK1.1 or α-Ly49H for 4 h. NK cells were maintained in 10 ng/ml IL-15 throughout the 4 h incubation time. Percentages of c) IFN-γ+ and d) CD107A+ NK cells were determined by flow cytometry. In (a-d) results shown are means ± SEM and are representative of at least two independent experiments.

Structure (SMILES): CC(C)(O)CCOc1ccc2cc(O)c(N3CC(=O)NS3(=O)=O)c(F)c2c1 [Compound 182, 5-(1-Fluoro-3-hydroxy-7-(3-hydroxy-3-methylbutoxy)naphthalen-2-yl)−1,2,5-thiadiazolidin-3-one 1,1-dioxide]
- OT-I CD8+ T cell proliferation/expansion (CTV dilution) (OT-I CD8+ T cells): marked increases
- CTV, mean of differences (D - C) (OT-I CD8+ T cells; 2KI vs. 2K, day 3, 4 pairs, Fig. 2C): 23.93
- CTV, single replicates (OT-I CD8+ T cells; Lck-Cre;Ptpn2fl/fl (2K) OT-I cells, listed as 2KI): 82.8 and 89.7 and 89.6 and 74.7
- CTV, mean of differences (B - A) (OT-I CD8+ T cells; WTI vs. WT, day 3, 4 pairs, Fig. 2C): 27.74
- CTV, single replicates (OT-I CD8+ T cells; wild type OT-I cells, listed as WTI): 38.7 and 58 and 84.3 and 62.7
- IC50 (PTPN2; DiFMUP 10 μM as substrate): 0.58 ± 0.02 nM
- IC50 (PTPN2; TC-PTP, DiFMUP 10 μM, pH 7.0, 25 °C): 0.58 ± 0.02 nM
- NK cell activation (IFNγ or CD107A expressing cells) (NK cells): nor did it affect

From PMC10374545, “A small molecule inhibitor of PTP1B and PTPN2 enhances T cell anti-tumor immunity” (Nature Communications, 2023)
